Each structure is given as a SMILES string.

The source of these data is patent publication US20250099448A1, “HETEROCYCLIC COMPOUNDS” (Hoffmann-La Roche Inc., priority 2022, published 2025).

The target in this assay is T1, MAGL protein (Homo sapiens, UniProt Q99685).
T1 sequence (Q99685 1-303): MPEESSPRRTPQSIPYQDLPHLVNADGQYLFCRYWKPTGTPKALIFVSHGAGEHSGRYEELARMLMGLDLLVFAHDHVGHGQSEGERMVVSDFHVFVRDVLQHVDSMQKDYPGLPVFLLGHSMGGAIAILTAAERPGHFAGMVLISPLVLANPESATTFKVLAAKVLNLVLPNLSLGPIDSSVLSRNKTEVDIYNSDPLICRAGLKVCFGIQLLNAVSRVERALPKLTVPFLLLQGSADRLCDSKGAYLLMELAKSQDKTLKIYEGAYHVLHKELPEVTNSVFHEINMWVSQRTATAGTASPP
Put plainly: 2-AG assay: MAGL inhibitory activity by hydrolysis of 2-arachidonoylglycerol to arachidonic acid, followed by mass spectrometry. In kind it is biochemical. Conditions: 8 μM 2-arachidonoylglycerol, 15 min preincubation, 30 min reaction at RT, RapidFire MS readout. A digest of the protocol:
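Activity was measured by RapidFire SPE–triple-quad MS as the ratio of arachidonic acid to d8-arachidonic acid after 2-AG hydrolysis (8 μM substrate, 30 min, RT, acetonitrile quench). Compounds, tested from 12.5 μM down to […], were first preincubated 15 min with MAGL in TRIS/EDTA/Tween-20 buffer containing 2.5% DMSO.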
The compound `N#Cc1cc(CC2CC3(C2)CN(C(=O)N2CC4(CC(c5nnc(C6CC6)[nH]5)C4)C2)C3)cc(C(F)(F)F)n1` [compound 778] gave an IC50 of 0.99 nM.
For the compound `O=C(N1CC2(CCC(Cc3nnc(C(F)(F)F)o3)CC2)C1)N1CC2(CC(c3nc(C4CC4)n[nH]3)C2)C1` [compound 779], the concentration for half-maximal inhibition (IC50) is 8.36 nM.
To `O=C(N1CC2(CC(c3nc(C4CC4)n[nH]3)C2)C1)N1CC2(CN(Cc3nc(C(F)(F)F)cs3)C2)C1` [compound 780] belongs 3.37 nM; to `N=S(=O)(c1ccc(CC2CC3(C2)CN(C(=O)N2CC4(CC(c5nc(C6COC6)n[nH]5)C4)C2)C3)cc1)C(F)(F)F` (stereo not shown) [compound 782], 17.8 nM; to `O=C(N1CC2(CC(Cc3nc(C(F)(F)F)cs3)C2)C1)N1CC2(CC(c3nc(C4COC4)n[nH]3)C2)C1` [compound 783], 33.7 nM.
The value for `O=C(N1CC2(CC(c3nc(C4CC4)n[nH]3)C2)C1)N1CC2(CN(Cc3cnc(C(F)(F)F)s3)C2)C1` [compound 784] was 5.18 nM; that for `Cn1nc(C(F)(F)F)cc1CC1CC2(C1)CN(C(=O)N1CC3(CC(c4nc(C5CC5)n[nH]4)C3)C1)C2` [compound 785] was 0.39 nM.
The value for `CS(=O)(=O)c1ccc(C23CC(C4CN(C(=O)N5CC6(CC(c7nc(C8CC8)n[nH]7)C6)C5)C4)(C2)C3)cc1` [compound 786] was 8.01 nM; that for `O=C(N1CC2(CC(Cn3cnc(C4(C(F)(F)F)CC4)n3)C2)C1)N1CC2(CC(c3nc(C4CC4)n[nH]3)C2)C1` [compound 787] was 1.2 nM.
`O=C(N1CC2(CC(Cc3cnc(C(F)(F)F)cn3)C2)C1)N1CC2(CC(c3nc(C(F)(F)F)n[nH]3)C2)C1` [compound 788] came in with an IC50 of 22.5 nM.
To `O=C(N1CC2(CC(Cc3ncc(F)cc3Cl)C2)C1)N1CC2(CC(c3ncn[nH]3)C2)C1` [compound 789] belongs 404 nM; to `CS(=O)(=O)C1(c2ccc(C3CN(C(=O)N4CC5(CC(c6nc(C7(O)CC7)n[nH]6)C5)C4)C3)cc2)CC1` [compound 790], 9.68 nM.
To `CS(=O)(=O)c1ccc(CC2CC3(C2)CN(C(=O)N2CC4(CC(c5nc(C(F)(F)F)n[nH]5)C4)C2)C3)cc1` [compound 791] belongs 17.6 nM; to `O=C(N1CC2(CC(Cc3nnc(C4(C(F)(F)F)CC4)o3)C2)C1)N1CC2(CC(c3nc(C4(F)CC4)n[nH]3)C2)C1` [compound 792], 1.98 nM; to `O=C(N1CC2(CC(Cc3cc(C(F)(F)F)n(CC(F)(F)F)n3)C2)C1)N1CC2(CC(c3nc(C4CC4)n[nH]3)C2)C1` [compound 793], 0.07 nM.
Compound `O=C(N1CC2(CC(Cc3noc(C(F)(F)F)n3)C2)C1)N1CC2(CC(c3nc(C4CC4)n[nH]3)C2)C1` [compound 794] returned an IC50 of 1.03 nM.
As to `O=C(N1CC2(CC(c3nc(C4CC4)n[nH]3)C2)C1)N1CC2(CN(Cc3nc[nH]c3C(F)(F)F)C2)C1` [compound 795], the IC50 turned out to be 33.3 nM.
The value for `O=C(N1CC2(CC(Cn3nccc3C(F)(F)F)C2)C1)N1CC2(CC(c3nc(C4(O)CC4)n[nH]3)C2)C1` [compound 796] was 1.17 nM; that for `N#Cc1ccc(CC2CC3(C2)CN(C(=O)N2CC4(CC(c5nc(C6COC6)n[nH]5)C4)C2)C3)c(F)c1` [compound 797] was 9.31 nM; that for `O=C(N1CC(C23CC(C(F)(F)c4ccc(C(F)(F)F)cc4)(C2)C3)C1)N1CC2(CC(c3nc(C4CC4)n[nH]3)C2)C1` [compound 798] was 2.4 nM.
In the case of `O=C(N1CC2(CC(c3nc(C4CC4)n[nH]3)C2)C1)N1CC2(CN(Cc3cc[nH]n3)C2)C1` [compound 799], it took 1330 nM to reach half-maximal inhibition (IC50).
The value for `CC(C)(C)Cc1nnc(C23CC(C4CN(C(=O)N5CC6(CC(c7nc(C8COC8)n[nH]7)C6)C5)C4)(C2)C3)s1` [compound 800] was 554 nM; that for `N#Cc1cnn(CC2CC3(C2)CN(C(=O)N2CC4(CC(c5nc(C6CC6)n[nH]5)C4)C2)C3)c1` [compound 801] was 8.16 nM.
The value for `CS(=O)(=O)c1cc(C(F)(F)F)ccc1C1CC2(C1)CN(C(=O)N1CC3(CC(c4nnc(C5CC5)[nH]4)C3)C1)C2` [compound 803] was 1.39 nM.
On to `O=C(N1CC2(CC(c3nc(C4CC4)n[nH]3)C2)C1)N1CC2(CCN(Cc3ccc(C(F)(F)F)nc3)C2)C1` [compound 804], for which the IC50 came to 7.16 nM.
Consider `O=C(N1CC2(CC(c3ccc(C(F)(F)F)nc3)C2)C1)N1CC2(CC(c3nc(C4CC4)n[nH]3)C2)C1` [compound 805], for which the IC50 amounted to 4.73 nM.
In the case of `O=C(N1CC(C23CC(S(=O)(=O)c4ccc(C(F)(F)F)cn4)(C2)C3)C1)N1CC2(CC(c3nc(C4CC4)n[nH]3)C2)C1` [compound 807], half-maximal inhibition (IC50) was put at 478 nM.
To `N#Cc1cc(CC2CC3(C2)CN(C(=O)N2CC4(CC(c5nc(C6COC6)n[nH]5)C4)C2)C3)ccc1C(F)(F)F` [compound 808] belongs 0.29 nM; to `CS(=O)(=O)c1cc(CC2CC3(C2)CN(C(=O)N2CC4(CC(c5nc(C6CC6)n[nH]5)C4)C2)C3)cc(C(F)(F)F)c1` [compound 809], 0.34 nM; to `Cn1cc(CC2CC3(C2)CN(C(=O)N2CC4(CC(c5nc(C6(O)CC6)n[nH]5)C4)C2)C3)c(C(F)(F)F)n1` [compound 810], 1.14 nM.
To `O=C(N1CC2(CC(Cc3ccc(S(=O)(=O)C(F)(F)F)cn3)C2)C1)N1CC2(CC(c3nc(C4CC4)n[nH]3)C2)C1` [compound 813] belongs 0.18 nM.
The value for `O=C(N1CC2(CCC(Cc3ccc(C(F)(F)F)cn3)CC2)C1)N1CC2(CC(c3nc(C4COC4)n[nH]3)C2)C1` [compound 814] was 60.3 nM; that for `Cn1ncc(CC2CC3(C2)CN(C(=O)N2CC4(CC(c5nc(C6(O)CC6)n[nH]5)C4)C2)C3)c1C(F)(F)F` [compound 815] was 0.6 nM; that for `O=C(N1CC2(CC(Cc3n[nH]c(C4(C(F)(F)F)CC4)n3)C2)C1)N1CC2(CC(c3nnc(C4CC4)[nH]3)C2)C1` [compound 816] was 1.61 nM.
In turn, `CS(=O)(=O)c1ccc(CC2CC3(C2)CN(C(=O)N2CC4(CC(c5nc(C6COC6)n[nH]5)C4)C2)C3)cc1` [compound 817] displayed an IC50 of 180 nM.
With `Cc1cc(C(F)F)nn1CC1CC2(C1)CN(C(=O)N1CC3(CC(c4nc(C5CC5)n[nH]4)C3)C1)C2` [compound 818], the IC50 was determined as 0.59 nM.
Take `O=C(N1CC2(CC(Cc3ncc(F)cc3F)C2)C1)N1CC2(CC(c3nc(C(F)(F)F)n[nH]3)C2)C1` [compound 819]: the IC50 stood at 6.59 nM.
The value for `Cc1cc(C(C)(C)C)nn1-c1ccc(C2CN(C(=O)N3CC4(CC(c5nc(C6(O)CC6)n[nH]5)C4)C3)C2)cc1` [compound 820] was 0.77 nM; that for `Cc1cc(C2CC2)nn1-c1ccc(C2CN(C(=O)N3CC4(CC(c5nc(C6(O)CC6)n[nH]5)C4)C3)C2)cc1` [compound 821] was 2 nM; that for `O=C(N1CC2(CC(Cn3ccc(C4CC4)n3)C2)C1)N1CC2(CC(c3nc(C4CC4)n[nH]3)C2)C1` [compound 822] was 0.88 nM.
In turn, `Cn1cc(-c2ccc(C3CN(C(=O)N4CC5(CC(c6nc(C7(O)CC7)n[nH]6)C5)C4)C3)cc2)c(C(F)(F)F)n1` [compound 823] showed an IC50 of 0.21 nM.
To `O=C(N1CC2(CC(Cc3ccc(C(F)(F)F)cn3)C2)C1)N1CC2(CC(c3nc(C4COC4)n[nH]3)C2)C1` [compound 824] belongs 10.3 nM.
`O=C(N1CC(C23CC(NCC4(C(F)(F)F)CC4)(C2)C3)C1)N1CC2(CC(c3nc(C4(O)CC4)n[nH]3)C2)C1` [compound 825] had an IC50 of 4.37 nM.
In turn, `O=C(N1CC2(CC(c3nnc(C4CC4)[nH]3)C2)C1)N1CC2(CC(C(F)(F)c3ccc(C(F)(F)F)nc3)C2)C1` [compound 826] registered an IC50 of 0.56 nM.
To `CS(=O)(=O)c1cc(C(F)(F)F)ccc1CC1CC2(C1)CN(C(=O)N1CC3(CC(c4nc(C5COC5)n[nH]4)C3)C1)C2` [compound 827] belongs 21.2 nM; to `O=C(N1CC2(CC(c3ccc(C(F)(F)F)nc3)C2)C1)N1CC2(CC(c3nc(C4(O)CC4)n[nH]3)C2)C1` [compound 829], 38.4 nM.
To `N=S(=O)(c1ccc(CC2CC3(C2)CN(C(=O)N2CC4(CC(c5nc(C6COC6)n[nH]5)C4)C2)C3)cc1)C(F)(F)F` (stereo not shown) [compound 830] belongs 36.5 nM.
For `O=C(N1CC2(CC(Cc3ccc(Cl)cn3)C2)C1)N1CC2(CC(c3ncn[nH]3)C2)C1` [compound 831], the IC50 amounted to 1220 nM.
As for `N#Cc1cc(CC2CC3(C2)CN(C(=O)N2CC4(CC(c5nnc(C6CC6)[nH]5)C4)C2)C3)cnc1C(F)(F)F` [compound 833], the IC50 is 0.39 nM.
The compound `Cn1cc(-c2ccc(C3CN(C(=O)N4CC5(CC(c6nnc(C7CC7)[nH]6)C5)C4)C3)cc2)c(C(F)(F)F)n1` [compound 834] returned an IC50 of 0.06 nM.
The compound `O=C(N1CC2(CC(Cc3ccc(F)cc3F)C2)C1)N1CC2(CC(c3nc(C4COC4)n[nH]3)C2)C1` [compound 835] yielded an IC50 of 2.37 nM.
To `Cn1ncc(P(C)(C)=O)c1CN1CC2(C1)CN(C(=O)N1CC3(CC(c4nc(C5CC5)n[nH]4)C3)C1)C2` [compound 838] belongs 102 nM.
For the compound `O=C(N1CC(c2ccc(-n3nc(C(F)F)cc3C3CC3)cc2)C1)N1CC2(CC(c3nnc(C4CC4)[nH]3)C2)C1` [compound 839], the IC50 stood at 0.27 nM.
`Cc1nc(C)n(-c2ccc(C3CN(C(=O)N4CC5(CC(c6nnc(C7CC7)[nH]6)C5)C4)C3)cc2)n1` [compound 841]: inhibition was half-maximal at 10.6 nM (IC50).
The value for `N#Cc1cc(C(F)(F)F)ncc1CC1CC2(C1)CN(C(=O)N1CC3(CC(c4nnc(C5CC5)[nH]4)C3)C1)C2` [compound 843] was 1.07 nM.
